Measured values published in the supplement of paper PMC11208160.

Assay: recombinant UMI read abundance after kanamycin selection (control-corrected) (log10(CPM+1)); higher = more efficient recombination; extreme values may be limits of the assay; sequences stand for … in AGTGCAGAGAAAATCGGCCAGTTTTCTCTGCCTGCAGTCCGCATGCCGTGGGACCCCTTGGGTTCTAACCTGTTGCCTAGATTTATGCAGCGGACTGCCTTTCTCCCAAAGTGATAAACCGG…AGGTTGGTTTCACT; site = the 11-nt donor
In short: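 The measure is log10(CPM+1) for recombinant UMIs. These were PCR-amplified across the donor–target junction and sequenced after Escherichia coli carrying a donor and donor-binding-loop pair library and a target plasmid with T7-inducible IS621 bridge recombinase was plated on IPTG (0.07 mM) plus kanamycin or unselected. CPM were averaged over two replicates and scaled by control-derived factors.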
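Note: IS621 bridge recombinase in Escherichia coli cells against a fixed T5 target plasmid.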

Point of comparison: “GTGGCGGCATGGACCGGTTTTCCCGGTAATCCGTATTTGTG (site GTGGAGGCTCA)”, “recombinant UMI read abundance (log10)” value 0.154. Against it:
- CGGGAACCATGGACCGGTTTTCCCGGTAATCCGTATTTGAT (site CGAGAACCTAT) — within 0.2 log units, 0
- CAATTCCCATGGACCGGTTTTCCCGGTAATCCGTATTTGCT (site CAATTCCCTAT) — higher, 1.61
- AGGAAGGCATGGACCGGTTTTCCCGGTAATCCGTATTTGCT (site AGTAAGGCTAG) — higher, 1.3
- CCCTATCCATGGACCGGTTTTCCCGGTAATCCGTATTTGCC (site CCCTAGCCTGG) — within 0.2 log units, 0
- CGCATTACATGGACCGGTTTTCCCGGTAATCCGTATTTGGC (site CGCATTACTGC) — higher, 1.28
- GTCTGCACATGGACCGGTTTTCCCGGTAATCCGTATTTGTA (site GTCTGCACTTA) — higher, 1.44
- GGATCGGCATGGACCGGTTTTCCCGGTAATCCGTATTTGAC (site GGATCGGCTGT) — higher, 1.87
- TCGAAGTCATGGACCGGTTTTCCCGGTAATCCGTATTTGCG (site TCGAAGTCTCG) — higher, 1.9
- CCTAATACATGGACCGGTTTTCCCGGTAATCCGTATTTGGC (site CCTATTACTGC) — within 0.2 log units, 0
- GCGTAGCCATGGACCGGTTTTCCCGGTAATCCGTATTTGGG (site GCGGAGCCTCC) — within 0.2 log units, 0.0167
- CTTGTCTCATGGACCGGTTTTCCCGGTAATCCGTATTTGTA (site CTTATCTCTTA) — higher, 1.78
- GAGAATCCATGGACCGGTTTTCCCGGTAATCCGTATTTGTT (site CGGAATCCTAA) — within 0.2 log units, 0
- TGGATCACATGGACCGGTTTTCCCGGTAATCCGTATTTGCT (site TGGATCACTAG) — higher, 1.72
- ACTAGAACATGGACCGGTTTTCCCGGTAATCCGTATTTGGG (site ACTAGAACTCA) — within 0.2 log units, 0.0109
- CTGGCGTCATGGACCGGTTTTCCCGGTAATCCGTATTTGAG (site CTGGCGTCTCT) — higher, 0.929
- CTATTCCCATGGACCGGTTTTCCCGGTAATCCGTATTTGTT (site CTATTCCCTAA) — higher, 1.42
- CGCCGTACATGGACCGGTTTTCCCGGTAATCCGTATTTGCC (site CGCCGTACTGG) — higher, 1.55
- GAAGATTCATGGACCGGTTTTCCCGGTAATCCGTATTTGTA (site GAAGATTCTAA) — within 0.2 log units, 0.349
- CATAATACATGGACCGGTTTTCCCGGTAATCCGTATTTGGC (site CCTAATACTGC) — within 0.2 log units, 0
- CACAACGCATGGACCGGTTTTCCCGGTAATCCGTATTTGCA (site CACAACGCTTG) — higher, 2.49
- ATCTATACATGGACCGGTTTTCCCGGTAATCCGTATTTGAC (site ATCTCTACTGT) — within 0.2 log units, 0
- AAAAGCACATGGACCGGTTTTCCCGGTAATCCGTATTTGCA (site AAAAGCACTTG) — higher, 2.36
- GGAGTGGCATGGACCGGTTTTCCCGGTAATCCGTATTTGGT (site GAAGTGGCTAC) — within 0.2 log units, 0.126
- AGGTTGCCATGGACCGGTTTTCCCGGTAATCCGTATTTGTG (site AGGTTGCCTCA) — within 0.2 log units, 0.00688
- AGGGAGACATGGACCGGTTTTCCCGGTAATCCGTATTTGCG (site AGGGAGACTCG) — higher, 1.54
- TACGAATCATGGACCGGTTTTCCCGGTAATCCGTATTTGCG (site TATGAATCTCG) — higher, 2.1
- GGAACATCATGGACCGGTTTTCCCGGTAATCCGTATTTGCT (site CGATCATCTAG) — within 0.2 log units, 0
- AAGTCCACATGGACCGGTTTTCCCGGTAATCCGTATTTGCT (site AAGTCCACTAG) — higher, 1.56
- CCGTTTACATGGACCGGTTTTCCCGGTAATCCGTATTTGGT (site CCGTTTACTAG) — within 0.2 log units, 0
- TACCACCCATGGACCGGTTTTCCCGGTAATCCGTATTTGAC (site TACCACCCTGT) — within 0.2 log units, 0
- CACTTGGCATGGACCGGTTTTCCCGGTAATCCGTATTTGGT (site CACTTGGCTGC) — higher, 1.88
- GGGCTCACATGGACCGGTTTTCCCGGTAATCCGTATTTGAT (site GCGCTCACTAT) — higher, 0.802
- CTCTACACATGGACCGGTTTTCCCGGTAATCCGTATTTGCA (site CTCTACACTTG) — higher, 2.37
- ATGTACGCATGGACCGGTTTTCCCGGTAATCCGTATTTGGT (site ATGTACGCTAC) — higher, 1.42
- TAGCTCGCATGGACCGGTTTTCCCGGTAATCCGTATTTGAA (site TAGCTGGCTTT) — within 0.2 log units, 0.0219
- CACGCAGCATGGACCGGTTTTCCCGGTAATCCGTATTTGCG (site CACGCAGCTCG) — higher, 1.32
- ACGTTCCCATGGACCGGTTTTCCCGGTAATCCGTATTTGTG (site ACGTTCCCTCA) — within 0.2 log units, 0.0247
- AATATGACATGGACCGGTTTTCCCGGTAATCCGTATTTGTG (site AATATGACTCA) — higher, 0.774
- TGTTCCACATGGACCGGTTTTCCCGGTAATCCGTATTTGTA (site TGTTCCGCTTA) — within 0.2 log units, 0.0123
- GGCAAACCATGGACCGGTTTTCCCGGTAATCCGTATTTGAA (site GGCAAGCCTTT) — within 0.2 log units, 0.00636
- TACTTGACATGGACCGGTTTTCCCGGTAATCCGTATTTGCT (site TACTTGACTGG) — within 0.2 log units, 0
- GCGAAGCCATGGACCGGTTTTCCCGGTAATCCGTATTTGGG (site GCGAATCCTCC) — within 0.2 log units, 0.0162
- TAGCCGACATGGACCGGTTTTCCCGGTAATCCGTATTTGAC (site TAGCCGACTGT) — higher, 2.63
- CAAGCAGCATGGACCGGTTTTCCCGGTAATCCGTATTTGCT (site CGAGCAGCTAG) — within 0.2 log units, 0.00425
- CCGGGTCCATGGACCGGTTTTCCCGGTAATCCGTATTTGCA (site CCAGGTCCTTG) — within 0.2 log units, 0
- CTTCTCTCATGGACCGGTTTTCCCGGTAATCCGTATTTGTC (site CTTCTCTCTCA) — within 0.2 log units, 0.0104
- AGGTTCCCATGGACCGGTTTTCCCGGTAATCCGTATTTGTA (site AGGTTCCCTGA) — within 0.2 log units, 0
- CTAGCATCATGGACCGGTTTTCCCGGTAATCCGTATTTGAC (site CTAGTATCTGT) — higher, 2.13
- CTAGTATCATGGACCGGTTTTCCCGGTAATCCGTATTTGAC (site CTGGTATCTTT) — within 0.2 log units, 0.0145
- GAAGATTCATGGACCGGTTTTCCCGGTAATCCGTATTTGGT (site GAAGATTCTAG) — within 0.2 log units, 0
- CCGTTATCATGGACCGGTTTTCCCGGTAATCCGTATTTGTG (site CCGTTACCTCA) — within 0.2 log units, 0.00831
- GTTGAGTCATGGACCGGTTTTCCCGGTAATCCGTATTTGAC (site GTTGAGTCTGT) — higher, 2.71
- CTGTTACCATGGACCGGTTTTCCCGGTAATCCGTATTTGCT (site CTGGTACCTAG) — within 0.2 log units, 0
- AGTTTGGCATGGACCGGTTTTCCCGGTAATCCGTATTTGCT (site AGTTTGGCTAG) — within 0.2 log units, 0.0222
- CAAGCAGCATGGACCGGTTTTCCCGGTAATCCGTATTTGCT (site CACGCAGCTAG) — higher, 0.416
- TTAGCTGCATGGACCGGTTTTCCCGGTAATCCGTATTTGTG (site TTCGCTGCTCA) — within 0.2 log units, 0.00425
- GTGTAGGCATGGACCGGTTTTCCCGGTAATCCGTATTTGGC (site TTGTAGGCTGC) — higher, 2.28
- ACACACCCATGGACCGGTTTTCCCGGTAATCCGTATTTGAC (site ACACAGCCTGT) — within 0.2 log units, 0
- ATTGAGACATGGACCGGTTTTCCCGGTAATCCGTATTTGGT (site CTTGAGACTAC) — higher, 0.935
- AGGATGACATGGACCGGTTTTCCCGGTAATCCGTATTTGCG (site AGGATGACTCG) — higher, 2.3
- CTTTATTCATGGACCGGTTTTCCCGGTAATCCGTATTTGCG (site CTTTATTCTCG) — higher, 1.11
- CACATTTCATGGACCGGTTTTCCCGGTAATCCGTATTTGAA (site CACATTTCTTT) — within 0.2 log units, 0
- CTGACATCATGGACCGGTTTTCCCGGTAATCCGTATTTGCT (site CTGACATCTAG) — higher, 2.47
- AAGTACGCATGGACCGGTTTTCCCGGTAATCCGTATTTGGG (site AAGAACGCTCC) — within 0.2 log units, 0.14
- CGGGAAGCATGGACCGGTTTTCCCGGTAATCCGTATTTGAT (site CGGGAATCTAT) — higher, 1.85
- CTCCTCTCATGGACCGGTTTTCCCGGTAATCCGTATTTGTA (site CTACTCTCTTA) — within 0.2 log units, 0.176
- CTAGTATCATGGACCGGTTTTCCCGGTAATCCGTATTTGAC (site CAAGTATCTCT) — higher, 0.473
- GAATGGCCATGGACCGGTTTTCCCGGTAATCCGTATTTGCC (site GAATGGCCTCG) — within 0.2 log units, 0.0106
- TGATTATCATGGACCGGTTTTCCCGGTAATCCGTATTTGAA (site TGATTATCTTT) — higher, 1.32
- TATGTGGCATGGACCGGTTTTCCCGGTAATCCGTATTTGTG (site TATCTGGCTCA) — within 0.2 log units, 0.0111
- TTAGTAACATGGACCGGTTTTCCCGGTAATCCGTATTTGAC (site CTAGTATCTGT) — higher, 1.07
- CGTGGGACATGGACCGGTTTTCCCGGTAATCCGTATTTGTT (site CGTGGTACTAA) — within 0.2 log units, 0
- CCCGGTCCATGGACCGGTTTTCCCGGTAATCCGTATTTGGA (site CCCGGTCCTTA) — within 0.2 log units, 0.00376
- GTTAGAGCATGGACCGGTTTTCCCGGTAATCCGTATTTGCA (site GTTGGAGCTTG) — higher, 1.6
